Measured values: patent publication US20250388584A1, “TPK AGONIST AND METHOD FOR TREATING NEURODEGENERATIVE DISEASES USING SAME” (SHANGHAI RAISING PHARMACEUTICAL CO., LTD., priority 2022, published 2025)
Where a name gives a salt, the structure may show the parent alone. Read-outs that look alike come from different tables or passages of the source.

Target: TPK enzyme (Homo sapiens (Human), UniProt Q9H3S4)
Assay: TPK enzyme activity test
Assay type: biochemical
Settings: for Emax: calculated with the effect of DMSO on TPK enzyme activity as 100%; for EC50: promoting effect on TPK enzyme activity

Chain of TPK enzyme (Q9H3S4 whole entry): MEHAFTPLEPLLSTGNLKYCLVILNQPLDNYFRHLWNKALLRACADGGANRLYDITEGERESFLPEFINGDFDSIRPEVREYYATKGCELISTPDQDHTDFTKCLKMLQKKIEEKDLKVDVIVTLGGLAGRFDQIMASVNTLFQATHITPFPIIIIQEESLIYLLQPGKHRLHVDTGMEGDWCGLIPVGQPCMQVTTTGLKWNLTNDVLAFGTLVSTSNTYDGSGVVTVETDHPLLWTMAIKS

SMILES | Emax (read-out: Emax) [%] | EC50 [nM] | Emax [%]
Cc1ccc2[nH]c3c(=O)n(CCC(=O)N4CCN(c5cccc(C(F)(F)F)c5)CC4)ccc3c2c1 [Compound 59, 6-methyl-2-(3-oxo-3-(4-(3-(trifluoromethyl)phenyl)piperazin-1-yl)propyl)-2,9-dihydro-1H-pyrido[3,4-b]indol-1-one] | 190 | 1380 | –
Cc1ccc2[nH]c3c(=O)n(CCC(=O)NCc4cc(C(F)(F)F)cc(C(F)(F)F)c4)cnc3c2c1 [Compound 66, N-(3,5-bis(trifluoromethyl)benzyl)-3-(8-methyl-4-oxo-4,5-dihydro-3H-pyrimido[5,4-b]indol-3-yl)propanamide] | 138 | – | –
COc1cccc(CNC(=O)CCn2cnc3c([nH]c4ccc(C)cc43)c2=O)c1 [Compound 81] | 123 | – | –
COC(=O)CCC(=O)OCCN1CCN(CCCN2c3ccccc3Sc3ccc(C(F)(F)F)cc32)CC1 [Compound 184, methyl (2-(4-(3-(2-(trifluoromethyl)-10H-phenothiazin-10-yl)propyl)piperazin-1-yl)ethyl) Succinate] | – | – | 176
O=C1CCCCN1CCCCCCN1C(=O)CSc2ccc(C(F)(F)F)cc21 [Compound 195, 4-(6-(2-oxopiperidin-1-yl)hexyl)-6-(trifluoromethyl)-2H-benzo[b][1,4]thiazin-3(4H)-one] | 136 | – | –
Cc1ccc2[nH]c3c(=O)n(CCC(=O)NCc4cccc(C(F)(F)F)c4)cnc3c2c1 [Compound 97] | 178 | 1010 | –
O=C(N[C@@H](Cc1ccc(F)cc1)C(=O)O)OCC1c2ccccc2-c2ccccc21 [Compound 141] | 204 | 4070 | –
Cc1ccc2oc3c(=O)n(CCC(=O)NCc4cccc(C(F)(F)F)c4)cnc3c2c1 [Compound 87, 3-(8-methyl-4-oxobenzofuro[3,2-d]pyrimidin-3(4H)-yl)-N-(3-(trifluoromethyl)benzyl)propanamide] | 146 | – | –
O=C1CCCCN1CCCCCCN1c2ccccc2Sc2ccc(C(F)(F)F)cc21 [Compound 187, 1-(6-(2-(trifluoromethyl)-10H-phenothiazin-10-yl)hexyl)piperidin-2-one] | 191 | 1130 | –
Cc1ccc2[nH]c3c(=O)n(CCC(=O)NCCNc4ccc5ccccc5c4)cnc3c2c1 [Compound 132, 3-(8-methyl-4-oxo-4,5-dihydro-3H-pyrimido[5,4-b]indol-3-yl)-N-(2-(naphthalen-2-ylamino)ethyl)propanamide] | 163 | – | –
Cc1ccc2[nH]c3c(=O)n(CCC(=O)N4CCN(c5ccc(F)cc5)CC4)cnc3c2c1 [Compound 33] | 123 | – | –
Cc1ccc2[nH]c3c(=O)n(CCC(=O)N4CCN(c5cc(Cl)ccc5Cl)CC4)cnc3c2c1 [Compound 2, 3-(3-(4-(2,5-dichlorophenyl)piperazin-1-yl)-3-oxopropyl)-8-methyl-3,5-dihydro-4H-pyrimido[5,4-b]indol-4-one] | 149 | 2050 | –
COc1cccc(N2CCN(C(=O)CCn3cnc4c([nH]c5ccc(C)cc54)c3=O)CC2)c1 [Compound 43] | 137 | – | –
O=C1CCCCN1CCCCCCN1CCSc2ccc(C(F)(F)F)cc21 [Compound 193, 1-(6-(6-(trifluoromethyl)-2,3-dihydro-4H-benzo[b][1,4]thiazin-4-yl)hexyl)piperidin-2-one] | 178 | 7490 | –
Cc1cccc2[nH]c3c(=O)n(CCC(=O)NCc4cccc(C(F)(F)F)c4)cnc3c12 [Compound 77, 3-(9-methyl-4-oxo-4,5-dihydro-3H-pyrimido[5,4-b]indol-3-yl)-N-(3-(trifluoromethyl)benzyl)propanamide] | 122 | – | –
Cc1ccc2ncc3c(=O)n(CCCC(=O)N4CCC(Cc5ccc(F)cc5)CC4)cnc3c2c1 [Compound 218, 3-(4-(4-(4-fluorobenzyl)piperidin-1-yl)-4-oxobutyl)-9-methylpyrimido[5,4-c]quinolin-4(3H)-one] | – | 617 | –
C[C@H](OC(C)(C)C)[C@@H](NC(=O)OCC1c2ccccc2-c2ccccc21)C(=O)O [Compound 142] | 224 | 9040 | –
Cc1ccc2[nH]c3c(=O)n(CCC(=O)N4CCN(c5cccc(C(=O)O)c5)CC4)cnc3c2c1 [Compound 27, 3-(4-(3-(8-methyl-4-oxo-4,5-dihydro-3H-pyrimido[5,4-b]indol-3-yl)propanoyl)piperazin-1-yl)benzoic Acid] | 122 | – | –
Cc1ccc2[nH]c3c(=O)n(CCC(=O)NCc4cn5ccccc5n4)cnc3c2c1 [Compound 134, N-(imidazo[1,2-a]pyridin-2-ylmethyl)-3-(8-methyl-4-oxo-4,5-dihydro-3H-pyrimido[5,4-b]indol-3-yl)propanamide] | 125 | – | –
Cc1ccc2[nH]c3c(=O)n(CCC(=O)N4CCN(c5ccc(S(=O)(=O)N6CCCCC6)cc5)CC4)cnc3c2c1 [Compound 169, 8-methyl-3-(3-oxo-3-(4-(4-(piperidin-1-ylsulfonyl)phenyl)piperazin-1-yl)propyl)-3,5-dihydro-4H-pyri mid[5,4-b]indol-4-one] | 147 | 2140 | –

Second part, the compound after the results:

Emax (read-out: Emax) [%] | EC50 [nM] | Emax [%] | SMILES
147 | 768 | – | Cc1ccc2[nH]c3c(=O)n(CCC(=O)N4CCN(c5ccc(Cl)c(Cl)c5)CC4)cnc3c2c1 [Compound 9, 3-(3-(4-(3,4-dichlorophenyl)piperazin-1-yl)-3-oxopropyl)-8-methyl-3,5-dihydro-4H-pyrimido[5,4-b]indol-4-one]
119 | 495 | – | Cc1ccc2[nH]c3c(=O)n(CCC(=O)N4CCC(N(C)c5cccc(Cl)c5Cl)CC4)cnc3c2c1 [Compound 166, 3-(3-(4-((2,3-dichlorophenyl)(methyl)amino)piperidin-1-yl)-3-oxopropyl)-8-methyl-3,5-dihydro-4H-pyrimido[5,4-b]indol-4-one]
193 | – | – | Cc1ccc2[nH]c3c(=O)n(CCC(=O)NCCNc4ccc5c(c4)CCCC5)cnc3c2c1 [Compound 131, 3-(8-methyl-4-oxo-4,5-dihydro-3H-pyrimido[5,4-b]indol-3-yl)-N-(2-((5,6,7,8-tetrahydronaphthalen-2-yl)amino)ethyl)propanamide]
171 | 1990 | – | O=C(CCn1cnc2c(oc3ccc(F)cc32)c1=O)N1CCC(Cc2ccc(F)cc2)CC1 [Compound 150, 8-fluoro-3-(3-(4-(4-fluorobenzyl)piperidin-1-yl)-3-oxopropyl)benzofuro[3,2-d]pyrimidin-4(3H)-one]
128 | – | – | Cc1ccc2[nH]c3c(=O)n(CCC(=O)N4CCN(c5ccccc5C(F)(F)F)CC4)cnc3c2c1 [Compound 4, 8-methyl-3-(3-oxo-3-(4-(2-(trifluoromethyl)phenyl)piperazin-1-yl)propyl)-3,5-dihydro-4H-pyrimido[5,4-b]indol-4-one]
– | 2320 | – | Cc1ccc2[nH]c3c(=O)n(CCC(=O)N4CCC(Cc5ccc(F)cc5)CC4)cnc3c2c1 [Compound 164]
139 | – | – | O=C(CCn1cnc2c([nH]c3ccc(F)cc32)c1=O)N1CCN(c2cccc(C(F)(F)F)c2)CC1 [Compound 39]
187 | – | – | COc1ccc2c(c1)N1CCN(c3ccc(C)cc3)CC1C(C(=O)Nc1ccccc1)C2 (stereo not shown) [Compound 140]
167 | 1370 | – | Cc1ccc(C)c(N2CCN(C(=O)CCn3cnc4c([nH]c5ccc(C)cc54)c3=O)CC2)c1 [Compound 34]
159 | – | – | Cc1ccc2[nH]c3c(=O)n(CCC(=O)N4CCN(c5cccc(Br)c5)CC4)cnc3c2c1 [Compound 18, 3-(3-(4-(3-bromophenyl)piperazin-1-yl)-3-oxopropyl)-8-methyl-3,5-dihydro-4H-pyrimido[5,4-b]indol-4-one]
141 | – | – | Cc1ccc2[nH]c3c(=O)n(CC(=O)N4CCN(c5cccc(C(F)(F)F)c5)CC4)cnc3c2c1 [Compound 41]
173 | 1130 | – | Cc1ccc2c(c1)-c1ncn(CCC(=O)N3CCN(c4cccc(C(F)(F)F)c4)CC3)c(=O)c1CC2 [Compound 215, 9-methyl-3-(3-oxo-3-(4-(3-(trifluoromethyl)phenyl)piperazin-1-yl)propyl)-5,6-dihydrobenzo[h]quinazolin-4(3H)-one]
148 | 2320 | – | Cc1ccc2[nH]c3c(=O)n(CCC(=O)N4CCN(c5ccc(Cl)cc5Cl)CC4)cnc3c2c1 [Compound 7, 3-(3-(4-(2,4-dichlorophenyl)piperazin-1-yl)-3-oxopropyl)-8-methyl-3,5-dihydro-4H-pyrimido[5,4-b]indol-4-one]
210 | 1060 | – | Cc1ccc2[nH]c3c(=O)n(CCCCN4CCN(c5cccc(C(F)(F)F)c5)CC4)cnc3c2c1 [Formate salt of 48, 8-methyl-3-(4-(4-(3-(trifluoromethyl)phenyl)piperazin-1-yl)butyl)-3,5-dihydro-4H-pyrimido[5,4-b]indol-4-one]
170 | 1680 | – | O=C(CCn1cnc2c([nH]c3ccc(C(F)(F)F)cc32)c1=O)N1CCN(Cc2cc(F)c(F)c(F)c2)CC1 [Compound 54, 3-(3-oxo-3-(4-(3,4,5-trifluorobenzyl)piperazin-1-yl)propyl)-8-(trifluoromethyl)-3,5-dihydro-4H-pyrimido[5,4-b]indol-4-one]
165 | 1450 | – | O=C1CCc2ccc(OCCCCCN3c4ccccc4Sc4ccc(C(F)(F)F)cc43)cc2N1 [Compound 206, 7-((5-(2-(trifluoromethyl)-10H-phenothiazin-10-yl)pentyl)oxy)-3,4-dihydroquinolin-2(1H)-one]
131 | 5600 | – | COC(=O)C1CCCCN1CCCN1c2ccccc2Sc2ccccc21 (stereo not shown) [Formate salt of 191, methyl 1-(3-(10H-phenothiazin-10-yl)propyl)piperidin-2-carboxylate]
204 | 490 | – | O=C(O)CCC(=O)OCCN1CCN(CCC(=O)N2c3ccccc3Sc3ccc(C(F)(F)F)cc32)CC1 [Compound 199]
160 | 3560 | – | Cc1ccc2[nH]c3c(=O)n(CCC(=O)N(C)CCN(C)c4cccc(C(F)(F)F)c4)cnc3c2c1 [Compound 92, N-methyl-N-(2-(methyl(3-(trifluoromethyl)phenyl)amino)ethyl)-3-(8-methyl-4-oxo-4,5-dihydro-3H-pyrimido[5,4-b]indol-3-yl)propanamide]
172 | 1210 | – | Cc1ccc2[nH]c3c(=O)n(CCC(=O)N4CCN(c5cccc(C(F)(F)F)c5)CC4)cnc3c2c1 [Compound 61]
